Experimental data from ChEMBL document CHEMBL1201862, “PubChem BioAssay data set” (2004).
Activity calls are given as the source filed them.

What was measured:
[1] = target: T1, Long-chain-fatty-acid--AMP ligase FadD28 (Mycobacterium tuberculosis, UniProt P9WQ59); assay: Fluorescence polarization aasay to screen for inhibitors that compete for the binding of FadD28 to a bisubstrate Measured in Biochemical System Using Plate Reader - 2147-01_Inhibitor_Dose_CherryPick_Activity.; format: functional, Mycobacterium tuberculosis H37Rv
T1 sequence (P9WQ59 whole entry): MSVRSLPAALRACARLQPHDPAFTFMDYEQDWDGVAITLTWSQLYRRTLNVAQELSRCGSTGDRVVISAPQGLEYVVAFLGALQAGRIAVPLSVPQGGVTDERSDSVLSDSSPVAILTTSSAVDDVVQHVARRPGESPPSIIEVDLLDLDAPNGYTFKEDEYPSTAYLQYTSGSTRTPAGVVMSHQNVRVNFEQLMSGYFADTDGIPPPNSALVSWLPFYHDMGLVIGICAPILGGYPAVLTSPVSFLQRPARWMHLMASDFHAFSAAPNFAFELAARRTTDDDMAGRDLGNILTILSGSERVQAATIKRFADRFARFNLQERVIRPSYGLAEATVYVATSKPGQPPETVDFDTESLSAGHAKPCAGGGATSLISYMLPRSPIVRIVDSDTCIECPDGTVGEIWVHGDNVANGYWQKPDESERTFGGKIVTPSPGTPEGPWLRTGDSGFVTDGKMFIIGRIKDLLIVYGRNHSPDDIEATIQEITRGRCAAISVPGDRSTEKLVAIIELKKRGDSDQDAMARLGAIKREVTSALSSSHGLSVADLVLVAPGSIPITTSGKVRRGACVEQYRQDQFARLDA

[2] = target: T2, Sentrin-specific protease 8 (Homo sapiens, UniProt Q96LD8); format: functional
T2 sequence (Q96LD8 whole entry): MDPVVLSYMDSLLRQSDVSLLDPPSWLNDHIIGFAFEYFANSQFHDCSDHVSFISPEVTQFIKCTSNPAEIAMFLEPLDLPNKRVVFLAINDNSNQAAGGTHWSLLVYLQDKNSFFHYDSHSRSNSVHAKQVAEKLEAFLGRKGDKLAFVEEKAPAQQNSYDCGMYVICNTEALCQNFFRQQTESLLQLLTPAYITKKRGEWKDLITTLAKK

Streptokinase A = target: T3, Streptokinase A (Streptococcus pyogenes serotype M1, UniProt P10520); assay: S. pyogenes streptokinase expression inhibitors, potency, dose response, plasminogen activation absorbance, OD405 (AID 1914); format: functional, Streptococcus pyogenes M1 GAS;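 also: secreted streptokinase activity via plasminogen activation per viability signal from cell pellet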
T3 sequence (P10520 whole entry): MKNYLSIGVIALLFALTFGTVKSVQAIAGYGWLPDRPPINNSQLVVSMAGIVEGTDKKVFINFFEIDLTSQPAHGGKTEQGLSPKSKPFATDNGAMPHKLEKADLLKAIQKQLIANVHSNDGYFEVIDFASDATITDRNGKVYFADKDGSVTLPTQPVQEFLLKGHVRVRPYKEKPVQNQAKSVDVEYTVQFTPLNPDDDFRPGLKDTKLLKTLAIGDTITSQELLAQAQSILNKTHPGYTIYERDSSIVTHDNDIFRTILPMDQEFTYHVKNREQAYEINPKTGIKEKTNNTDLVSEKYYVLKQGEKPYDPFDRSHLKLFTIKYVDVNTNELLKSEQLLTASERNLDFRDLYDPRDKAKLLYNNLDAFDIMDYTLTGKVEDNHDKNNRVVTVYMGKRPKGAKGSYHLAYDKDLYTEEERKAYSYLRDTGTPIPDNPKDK

[3] = target: T2, Sentrin-specific protease 8; format: functional; remark: listed apart in the source
[4] = target: T4, Heat shock factor protein 1 (Mus musculus, UniProt P38532); assay: HSF1 potentiators in luciferase reporter cells, confirmation, cell-based, NIH3T3, luminescence, dose retest (AID 435004); format: functional;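 also: stress induced by proteasome inhibitor MG132 added 30 min after compound; luciferase reporter driven by HSF1 response element in NIH3T3 cells; actives raise luminescence as potentiators of the MG132 stress response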
T4 sequence (P38532 whole entry): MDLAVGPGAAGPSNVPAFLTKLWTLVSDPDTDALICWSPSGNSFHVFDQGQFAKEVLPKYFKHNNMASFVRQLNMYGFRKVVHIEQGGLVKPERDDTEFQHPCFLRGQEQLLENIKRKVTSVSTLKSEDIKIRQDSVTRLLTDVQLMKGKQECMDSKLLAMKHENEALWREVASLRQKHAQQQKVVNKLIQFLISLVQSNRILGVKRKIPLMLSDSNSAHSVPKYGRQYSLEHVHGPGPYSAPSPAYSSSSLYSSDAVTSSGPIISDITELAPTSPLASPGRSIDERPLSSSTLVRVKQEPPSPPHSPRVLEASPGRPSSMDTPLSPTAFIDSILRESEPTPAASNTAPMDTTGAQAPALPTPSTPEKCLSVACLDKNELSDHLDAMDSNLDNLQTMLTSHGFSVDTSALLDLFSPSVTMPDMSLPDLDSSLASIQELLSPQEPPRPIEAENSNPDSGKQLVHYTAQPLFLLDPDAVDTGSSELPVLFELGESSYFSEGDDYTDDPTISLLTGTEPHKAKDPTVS

[5] = target: T5, Carboxy-terminal domain RNA polymerase II polypeptide A small phosphatase 1 (Homo sapiens, UniProt Q9GZU7); assay: inhibitors of CTDSP1, concentration-response testing, biochemical assay, absorbance-based, actives from ultra-high-throughput screening (AID 540297); format: functional
T5 sequence (Q9GZU7 whole entry): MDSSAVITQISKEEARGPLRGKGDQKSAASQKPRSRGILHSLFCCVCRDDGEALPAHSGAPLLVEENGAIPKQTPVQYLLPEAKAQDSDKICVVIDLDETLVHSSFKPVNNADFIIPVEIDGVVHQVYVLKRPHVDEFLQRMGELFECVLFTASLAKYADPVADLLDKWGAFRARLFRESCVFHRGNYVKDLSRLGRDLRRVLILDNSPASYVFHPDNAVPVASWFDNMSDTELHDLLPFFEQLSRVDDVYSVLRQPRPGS

[6] = target: T6, Low molecular weight phosphotyrosine protein phosphatase (Homo sapiens, UniProt P24666); format: functional; conditions: read-out: IC50_Mean;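 also: Dose-response confirmation assay measuring inhibition of LMPTP enzyme activity by fluorescence intensity read-out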
T6 sequence (P24666 whole entry): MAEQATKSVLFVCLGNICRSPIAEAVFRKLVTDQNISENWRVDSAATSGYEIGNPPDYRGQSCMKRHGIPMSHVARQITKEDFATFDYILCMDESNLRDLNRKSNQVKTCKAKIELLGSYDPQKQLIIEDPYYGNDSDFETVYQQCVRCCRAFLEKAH

Prothrombin = Prothrombin (Homo sapiens, UniProt P00734); assay: Thrombin 1536 HTS Dose Response Confirmation. [Related pubchem assays: 1046 (Thrombin 1536 HTS; hits were confirmed in this assay)]; format: functional
[7] = A Cell Based Secondary Assay To Explore Cytotoxicity of Compounds that Sensitize Mycobacterium Tuberculosis to Beta-Lactam Antibiotics.; format: functional
[8] = HEp-2 cell cytotoxicity, dose response, cytotoxicity control for RSV inhibitor project, HTS (AID 2410); format: functional; conditions: human respiratory syncytial virus
Streptococcus = assay: Group A Streptococcus viability loss, dose response, counter-screen for streptokinase expression inhibitor project, luminescence, BacTiterGlo (AID 1915); format: functional, organism-based;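 also: potency for reduction of bacterial viability or growth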
[9] = system: Streptococcus sp. 'group A'; assay: growth inhibition of control SK(-) GAS strain, dose response, counter-screen for streptokinase expression inhibitor project, luminescence, kanamycin, BacTiterGlo, confirmation (AID 1900); format: functional, organism-based
[10] = target: T7, High affinity choline transporter 1 (Homo sapiens, UniProt Q9GZV3); assay: CHT inhibitors, dose response, cell-based, 5-point CRC, membrane potential dye (AID 504840); format: functional
T7 sequence (Q9GZV3 whole entry): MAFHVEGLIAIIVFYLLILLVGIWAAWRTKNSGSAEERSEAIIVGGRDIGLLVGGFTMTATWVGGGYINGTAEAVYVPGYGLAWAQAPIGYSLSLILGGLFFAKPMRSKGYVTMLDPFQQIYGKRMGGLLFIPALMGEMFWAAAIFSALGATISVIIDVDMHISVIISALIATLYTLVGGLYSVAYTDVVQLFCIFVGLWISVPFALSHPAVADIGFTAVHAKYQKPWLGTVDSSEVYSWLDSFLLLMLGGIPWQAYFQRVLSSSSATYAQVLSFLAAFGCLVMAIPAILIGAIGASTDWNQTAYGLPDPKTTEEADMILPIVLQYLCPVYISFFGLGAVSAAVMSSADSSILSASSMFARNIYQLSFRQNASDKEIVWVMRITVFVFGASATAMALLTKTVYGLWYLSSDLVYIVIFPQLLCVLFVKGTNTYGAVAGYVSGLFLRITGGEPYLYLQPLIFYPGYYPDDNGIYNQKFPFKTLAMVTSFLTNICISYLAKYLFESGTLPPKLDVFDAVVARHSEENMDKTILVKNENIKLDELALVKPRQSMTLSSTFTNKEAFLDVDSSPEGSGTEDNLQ

Fatty acid synthase [11] = target: T8, Fatty acid synthase (Homo sapiens, UniProt P49327); assay: FAS thioesterase domain inhibitors, dose response, biochemical, endpoint fluorescence intensity, uHTS hits (AID 624327); format: functional;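 also: fluorescence from hydrolysis of an O-methyl fluorescein acyl ester substrate by the enzyme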
T8 sequence (P49327 whole entry, the tested form may be a part): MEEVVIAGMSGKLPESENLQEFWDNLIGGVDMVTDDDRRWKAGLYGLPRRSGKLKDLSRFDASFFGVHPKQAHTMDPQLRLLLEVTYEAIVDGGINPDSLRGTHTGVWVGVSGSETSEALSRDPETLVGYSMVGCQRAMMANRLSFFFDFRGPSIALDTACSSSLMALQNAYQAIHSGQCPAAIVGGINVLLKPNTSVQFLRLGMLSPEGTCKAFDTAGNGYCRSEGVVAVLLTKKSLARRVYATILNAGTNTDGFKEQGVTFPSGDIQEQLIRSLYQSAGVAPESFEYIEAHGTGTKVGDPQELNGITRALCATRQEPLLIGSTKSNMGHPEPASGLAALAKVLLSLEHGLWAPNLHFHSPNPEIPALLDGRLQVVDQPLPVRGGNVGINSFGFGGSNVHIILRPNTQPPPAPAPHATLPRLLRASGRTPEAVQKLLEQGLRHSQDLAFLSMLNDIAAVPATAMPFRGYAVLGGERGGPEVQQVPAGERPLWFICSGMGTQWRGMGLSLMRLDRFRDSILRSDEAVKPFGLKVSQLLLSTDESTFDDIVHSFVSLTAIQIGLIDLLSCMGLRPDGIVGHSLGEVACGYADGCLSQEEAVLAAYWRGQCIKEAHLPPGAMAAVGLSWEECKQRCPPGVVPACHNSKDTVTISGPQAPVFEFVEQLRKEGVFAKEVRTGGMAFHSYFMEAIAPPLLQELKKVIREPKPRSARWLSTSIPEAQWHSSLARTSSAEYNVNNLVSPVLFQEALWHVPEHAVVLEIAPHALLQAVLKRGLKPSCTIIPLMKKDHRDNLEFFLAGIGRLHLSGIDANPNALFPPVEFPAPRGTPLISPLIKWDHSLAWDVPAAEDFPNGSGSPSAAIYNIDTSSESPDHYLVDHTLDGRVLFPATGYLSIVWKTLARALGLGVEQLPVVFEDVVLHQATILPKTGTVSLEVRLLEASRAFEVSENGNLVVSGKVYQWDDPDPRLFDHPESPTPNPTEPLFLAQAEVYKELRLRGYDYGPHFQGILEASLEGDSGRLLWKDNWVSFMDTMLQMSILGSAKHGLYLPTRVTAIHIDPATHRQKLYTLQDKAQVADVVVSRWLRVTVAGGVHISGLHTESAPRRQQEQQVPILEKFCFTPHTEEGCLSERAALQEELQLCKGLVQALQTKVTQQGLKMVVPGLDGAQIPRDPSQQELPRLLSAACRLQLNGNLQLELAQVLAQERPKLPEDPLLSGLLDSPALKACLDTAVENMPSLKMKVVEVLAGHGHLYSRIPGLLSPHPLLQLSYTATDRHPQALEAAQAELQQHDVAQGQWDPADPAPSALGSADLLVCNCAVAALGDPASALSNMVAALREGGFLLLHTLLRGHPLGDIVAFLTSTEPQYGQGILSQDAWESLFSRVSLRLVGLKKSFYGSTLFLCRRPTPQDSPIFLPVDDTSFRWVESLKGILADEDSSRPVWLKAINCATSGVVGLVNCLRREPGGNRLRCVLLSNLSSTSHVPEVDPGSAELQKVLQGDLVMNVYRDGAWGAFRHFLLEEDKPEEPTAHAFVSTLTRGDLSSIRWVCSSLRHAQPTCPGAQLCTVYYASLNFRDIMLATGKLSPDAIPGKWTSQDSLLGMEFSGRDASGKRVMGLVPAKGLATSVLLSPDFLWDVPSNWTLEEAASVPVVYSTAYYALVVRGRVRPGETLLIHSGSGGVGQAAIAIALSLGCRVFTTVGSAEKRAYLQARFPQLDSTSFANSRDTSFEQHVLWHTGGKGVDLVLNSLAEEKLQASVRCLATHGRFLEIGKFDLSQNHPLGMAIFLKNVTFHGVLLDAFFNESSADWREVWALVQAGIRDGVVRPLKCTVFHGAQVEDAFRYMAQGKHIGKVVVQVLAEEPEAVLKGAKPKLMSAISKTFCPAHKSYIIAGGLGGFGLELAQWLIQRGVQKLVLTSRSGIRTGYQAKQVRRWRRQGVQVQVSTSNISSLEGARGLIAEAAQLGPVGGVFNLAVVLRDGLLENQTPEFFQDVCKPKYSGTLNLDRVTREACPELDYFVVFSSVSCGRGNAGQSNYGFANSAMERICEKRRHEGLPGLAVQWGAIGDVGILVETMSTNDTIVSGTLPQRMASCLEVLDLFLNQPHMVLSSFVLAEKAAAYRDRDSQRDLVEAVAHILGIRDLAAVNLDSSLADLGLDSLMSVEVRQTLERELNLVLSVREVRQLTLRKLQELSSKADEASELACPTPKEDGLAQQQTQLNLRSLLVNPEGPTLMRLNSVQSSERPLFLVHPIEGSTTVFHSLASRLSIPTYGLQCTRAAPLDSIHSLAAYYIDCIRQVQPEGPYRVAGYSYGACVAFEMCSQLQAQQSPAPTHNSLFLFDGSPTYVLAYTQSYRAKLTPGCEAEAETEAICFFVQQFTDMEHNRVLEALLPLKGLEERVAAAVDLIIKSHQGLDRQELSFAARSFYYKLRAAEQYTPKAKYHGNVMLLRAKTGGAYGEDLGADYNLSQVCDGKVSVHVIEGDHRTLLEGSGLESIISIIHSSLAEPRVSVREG

Fatty acid synthase [12] = target: T8, Fatty acid synthase; assay: FAS thioesterase domain inhibitors, dose response, biochemical, kinetic fluorescence intensity (AID 624326); format: functional;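 also: rate of fluorescence rise from hydrolysis of a fluorogenic O-methyl fluorescein ester substrate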
[13] = Luminescence Cell-Based Dose Retest to Confirm Inhibitors of Cancer Stem Cells. [Related pubchem assays (depositor defined):AID2717, AID2721]; format: functional; conditions: Homo sapiens
Aminopeptidase N = target: T9, Aminopeptidase N (Plasmodium falciparum FcB1/Columbia, UniProt O96935); assay: P. falciparum M1AAP inhibitors, biochemical, fluorogenic H-Leu-NHMec substrate, 1536-well (AID 1445); set-up: species or system Plasmodium falciparum 3D7, 3D7
T9 sequence (O96935 whole entry): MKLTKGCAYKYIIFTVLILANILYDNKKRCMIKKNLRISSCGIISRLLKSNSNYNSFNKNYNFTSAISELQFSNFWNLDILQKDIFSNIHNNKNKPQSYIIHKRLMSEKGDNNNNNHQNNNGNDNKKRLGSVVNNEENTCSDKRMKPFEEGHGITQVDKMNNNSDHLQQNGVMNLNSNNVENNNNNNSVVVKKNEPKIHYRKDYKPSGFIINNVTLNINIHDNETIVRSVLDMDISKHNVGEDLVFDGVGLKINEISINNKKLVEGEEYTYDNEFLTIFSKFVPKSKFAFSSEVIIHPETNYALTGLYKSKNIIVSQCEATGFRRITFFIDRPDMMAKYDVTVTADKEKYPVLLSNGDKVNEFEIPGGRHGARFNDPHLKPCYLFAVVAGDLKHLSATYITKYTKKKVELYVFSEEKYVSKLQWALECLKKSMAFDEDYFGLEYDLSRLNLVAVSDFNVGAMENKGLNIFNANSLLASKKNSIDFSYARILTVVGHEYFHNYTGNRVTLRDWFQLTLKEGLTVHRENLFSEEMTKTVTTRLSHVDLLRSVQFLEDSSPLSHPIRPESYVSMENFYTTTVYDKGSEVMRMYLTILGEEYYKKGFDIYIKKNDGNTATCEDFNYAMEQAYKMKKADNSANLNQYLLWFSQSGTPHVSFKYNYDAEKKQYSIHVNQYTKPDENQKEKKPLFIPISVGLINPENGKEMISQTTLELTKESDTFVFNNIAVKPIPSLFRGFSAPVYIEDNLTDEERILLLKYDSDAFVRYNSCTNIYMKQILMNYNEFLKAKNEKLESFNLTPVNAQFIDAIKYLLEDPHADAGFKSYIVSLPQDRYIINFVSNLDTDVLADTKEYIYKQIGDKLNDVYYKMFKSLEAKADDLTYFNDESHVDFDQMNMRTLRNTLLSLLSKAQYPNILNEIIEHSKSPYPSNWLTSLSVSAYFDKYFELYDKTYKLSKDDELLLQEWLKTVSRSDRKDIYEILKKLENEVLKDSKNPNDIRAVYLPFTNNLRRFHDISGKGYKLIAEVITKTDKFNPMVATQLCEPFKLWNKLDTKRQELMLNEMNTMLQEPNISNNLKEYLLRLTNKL

Cc1ccc(C2CC(=O)NC(SCC(=O)Nc3nccs3)=C2C#N)cc1 (stereo unspecified)
AC50 [1]: 51.5 µM (active)

Cc1[nH][nH]c(=O)c1C(c1c(C)[nH][nH]c1=O)c1cn(Cc2ccc(Cl)c(Cl)c2)c2ccccc12
IC50 [2]: 5.81 µM (active) | EC50 (Streptokinase A): 10.1 µM (active) | IC50 [3]: 6.19 µM (active) | EC50 [4]: 27 µM (active)

O=C(O)c1ccc(Nc2nc(-c3ccc([N+](=O)[O-])cc3)nc3ccccc23)cc1
IC50 [5]: 4.57 µM (active) | IC50 [6]: 10.9 µM (active)

Nc1[nH]cnc2nc(SCCN3CCCCC3)nc1-2
IC50 (Prothrombin): > 50 µM (not active)

Cc1cn([C@@H](CCCCNC(=O)OC(C)(C)C)C(=O)NCCCCCCCCCCC(=O)N2CCN(C(=O)OC(C)(C)C)CC2)nn1
CC50 [7]: 37.6 µM (active)

COC(=O)c1cc(C)nc2c(C)cc3[nH]c4ccccc4c3c12
CC50 [8]: 15 µM (active) | CC50 [7]: > 40 µM (active)

Cc1c(NC(=O)CSc2nnc3c4ccccc4n(CCc4ccccc4)c3n2)c(=O)n(-c2ccccc2)n1C
CC50 [8]: 4.56 µM (active) | IC50 (cells): 3.31 µM (active) | EC50 [4]: 24.1 µM (active)

O=C(Nc1ccc(Cl)c(Cl)c1)C1CC(=O)N(c2ccc(Br)cc2)C1 (stereo unspecified)
EC50 (Streptococcus): 11.9 µM (active) | EC50 (Streptokinase A): 20.1 µM (active) | IC50 (Prothrombin): > 50 µM (not active) | EC50 [9]: 5.25 µM (active)

CC1OC(O[C@H]2CC[C@]3(C)C4C=C[C@]56OC[C@@]7(CC[C@@H](C)[C@H](C)C75)[C@H](O)C[C@@]6(C)[C@]4(C)CC[C@H]3C2(C)C)C(OC2OC(CO)C(O)C(O)C2OC2OCC(O)C(O)C2O)C(O)C1O (stereo partly specified)
IC50 (Prothrombin): > 50 µM (not active)

O=C(COC(=O)c1cc(Br)ccc1O)Nc1cc(S(=O)(=O)N2CCCC2)ccc1Cl
IC50 (Prothrombin): 7.17 µM (active)

C/C(=N\NS(=O)(=O)c1ccc(Cl)c([N+](=O)[O-])c1)c1cc2ccccc2o1
IC50 [10]: 4.37 µM (active) | IC50 (Fatty acid synthase [11]): 12.3 µM (active) | IC50 [6]: 80 µM (inactive) | IC50 (Fatty acid synthase [12]): 15.6 µM (active)

COc1ccccc1-n1c(C)cc(/C=C2/C(=N)N3C(=NC2=O)SN=C3S(C)(=O)=O)c1C
CC50 [8]: 19.8 µM (active) | IC50 (cells): 11.4 µM (active)

Cc1cc(=O)n(-c2ccc3ccccc3n2)[nH]1
IC50 [2]: 24.2 µM (active) | IC50 [3]: 30.4 µM (active)

C/C(=N\NC(=O)c1cccc(Cl)c1)C1C(=O)c2ccccc2C1=O
AC50 [13]: 10.7 µM (active) | IC50 (Aminopeptidase N): 40.8 µM (active) | AC50 [1]: 68.6 µM (active)
